Results taken from US20090175795A1, “CHIMERIC THERAPEUTIC AGENTS” (Amprotein Corporation, priority 2005, published 2009).

Key:
[1] = effect on body weight, 7-day ip injection; format: in vivo, mouse; conditions: for Body weight (X ± SD): n = 5, in g (unit assumed)
Method: The effects of GLP1-Fc-leptin on body weight were studied. Mice were injected with 0.1 mg of GLP1-Fc-leptin or human IgG1 Fc fragment in the same manner described above daily for seven days. At days 1 and 7, the body weight of each […] was measured and recorded. […] The body weight was measured on days 1, 4, and 7. Effects of leptin on body weight were studied in the same manner described above. More specifically, mice were injected ip. with 0.1 mg/mouse of human recombinant leptin (R&D Systems, Cat# 398-LP) or human IgG Fc twice a day (9 am and 5 pm) for 7 days.

[2] = tested on: blood glucose; experiment: GTT assay in rabbits; format: in vivo, rabbit; conditions: small numbers
Method: (§1) Similarly GTT assays were also conducted in rats and rabbits in small numbers. All the results support the inhibition of GLP1-Fc-leptin on blood glucose level.

[3] = tested on: blood glucose; experiment: IP glucose tolerance test repeated at day-1 and day-2 after one injection (long-term effect); format: in vivo, mouse; conditions: for Blood glucose (X ± SD): one injection 0.2 mg, n = 5
Method: First, intraperitoneal glucose tolerance test (ip GTT) was conducted to test GLP -Fc-leptin's action on glucose-dependent insulin secretion. Briefly, mouse blood glucose was measured using one-touch blood glucose strips. A blood sample was obtained from a mouse through tail bleeding. Then, 0.04, 0.1, or 0.2 mg of GLP1-Fc-leptin or control protein human IgG1 Fc fragment were injected ip. Immediately after the injections, 0.2 ml of saturated glucose water solution was injected ip into the mouse. One and two hours later, another blood sample was collected in the same manner for glucose measurement. […] The results are summarized in Tables 1-4 below: The above experiment was repeated with GLP1-Fc-leptin (0.2 mg) at day-1 before the glucose tolerance test. A IP glucose tolerance test was conducted twice at day-1 and day-2 respectively.

[4] = tested on: blood glucose; experiment: everyday blood glucose level during the 7-day injection period; format: in vivo, mouse; conditions: 0.1 mg daily; for Glucose: one hour after injection, n = 5
Method: In the above experiments, during the 7-day period, blood glucose levels of each mouse were measured and recorded on each day one hour after injection of GLP1-Fc-leptin (0.1 mg) or IgG1 Fc fragment everyday in the morning.

[5] = tested on: blood glucose; experiment: intraperitoneal glucose tolerance test (ip GTT) in mice; format: in vivo, mouse; design: Blood glucose (X ± SD): unit not given here; conditions: for effect on blood glucose levels in ip GTT: P<0.05
Method: First, intraperitoneal glucose tolerance test (ip GTT) was conducted to test GLP -Fc-leptin's action on glucose-dependent insulin secretion. Briefly, mouse blood glucose was measured using one-touch blood glucose strips. A blood sample was obtained from a mouse through tail bleeding. Then, 0.04, 0.1, or 0.2 mg of GLP1-Fc-leptin or control protein human IgG1 Fc fragment were injected ip. Immediately after the injections, 0.2 ml of saturated glucose water solution was injected ip into the mouse. One and two hours later, another blood sample was collected in the same manner for glucose measurement.

[6] = tested on: blood glucose; experiment: GTT assay in rats; format: in vivo, rat; conditions: small numbers
Method: as §1

## GLP1-Fc-leptin: fusion protein GLP-1-3xGly-IgG1 Fc-leptin (SEQ ID NO:5), expressed in CHO cells
[1]; 0.1 mg daily for seven days, at day 7, p<0.05
  body weight lost: 11.3%
[1]; 0.1 mg ip daily for seven days, day 1
  Body weight (X ± SD): 24.7 ± 1.3
[1]; 0.1 mg ip daily for seven days, day 4
  Body weight (X ± SD): 23.7 ± 2.2
[1]; 0.1 mg ip daily for seven days, day 7
  Body weight (X ± SD): 21.9 ± 1.4
[2]
  effect on blood glucose level in GTT: inhibition
[3]; Day-1 GTT, 1 hour after IP glucose injection
  Blood glucose (X ± SD): 113.0 ± 16.2
[3]; Day-1 GTT, 2 hour after IP glucose injection
  Blood glucose (X ± SD): 82.0 ± 6.2
[3]; Day-1 GTT, before IP glucose injection
  Blood glucose (X ± SD): 84.4 ± 20.5
[3]; Day-2 GTT, 1 hour after IP glucose injection
  Blood glucose (X ± SD): 106.2 ± 25.7
[3]; Day-2 GTT, 2 hour after IP glucose injection
  Blood glucose (X ± SD): 95.8 ± 21.1
[3]; Day-2 GTT, before IP glucose injection
  Blood glucose (X ± SD): 92.6 ± 25.3
[3]; one injection of 0.2 mg
  duration of inhibition of blood glucose level: at least two
[4]; 7-day period
  everyday blood glucose levels versus IgG1 Fc fragment: lower blood glucose levels
[4]; day 1
  Glucose: 98.0 ± 13.2 mg/dL
[4]; day 2
  Glucose: 119.0 ± 25.8 mg/dL
[4]; day 3
  Glucose: 91.4 ± 44.6 mg/dL
[4]; day 4
  Glucose: 116.0 ± 34.3 mg/dL
[4]; day 5
  Glucose: 95.6 ± 33.9 mg/dL
[4]; day 6
  Glucose: 102.3 ± 25.7 mg/dL
[4]; day 7
  Glucose: 160.4 ± 18.6 mg/dL
[5]; 0.04 mg ip, 1 hour after IP glucose injection, n = 5
  Blood glucose (X ± SD): 275.8 ± 154.0
[5]; 0.04 mg ip, 2 hour after IP glucose injection, n = 5
  Blood glucose (X ± SD): 98.0 ± 22.7
[5]; 0.04 mg ip, before IP glucose injection, n = 5
  Blood glucose (X ± SD): 98.8 ± 29.2
[5]; 0.1 mg ip, 1 hour after IP glucose injection, n = 4
  Blood glucose (X ± SD): 108.8 ± 44.0
[5]; 0.1 mg ip, 2 hour after IP glucose injection, n = 4
  Blood glucose (X ± SD): 83.0 ± 21.6
[5]; 0.1 mg ip, before IP glucose injection, n = 4
  Blood glucose (X ± SD): 67.3 ± 32.1
[5]; 0.1 mg
  effect on blood glucose levels in ip GTT: significantly inhibited
[5]; 0.2 mg ip, 1 hour after IP glucose injection, n = 5
  Blood glucose (X ± SD): 113.0 ± 16.2
[5]; 0.2 mg ip, 2 hour after IP glucose injection, n = 5
  Blood glucose (X ± SD): 82.0 ± 6.2
[5]; 0.2 mg ip, before IP glucose injection, n = 5
  Blood glucose (X ± SD): 84.4 ± 20.5
[5]; 0.2 mg
  effect on blood glucose levels in ip GTT: significantly inhibited
[6]
  effect on blood glucose level in GTT: inhibition

## Human leptin: human recombinant leptin (R&D Systems, Cat# 398-LP)
[1]; 0.1 mg/mouse ip twice a day for 7 days
  weight loss relative to GLP1-Fc-Leptin: less than half of the weight loss that GLP1-Fc-Leptin induced
[1]; leptin study, 0.1 mg/mouse ip twice a day for 7 days, day 1
  Body weight (X ± SD): 20.9 ± 2.0
[1]; leptin study, 0.1 mg/mouse ip twice a day for 7 days, day 4
  Body weight (X ± SD): 20.7 ± 2.3
[1]; leptin study, 0.1 mg/mouse ip twice a day for 7 days, day 7
  Body weight (X ± SD): 20.1 ± 2.1
[1]; our animal model, pilot experiments, used alone
  weight loss when used alone: did not induce significant weight loss
